# Experimental data published in the supplement of paper PMC8960247.
# ± gives the standard error.
# Test system: 621-102 (TSC2-deficient)
# Assay: relative viability vs DMSO; higher = less cytotoxic
# Settings: 0.0001 µM; serum: 10% FBS; 72 h
# 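Further: immortalized renal angiomyolipoma cells stably carrying empty vector or TSC2, dosed in 384-well plates in DMEM, viability normalized to vehicle-treated wells within each plate.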
row,SMILES,relative viability
1,CC1(COc2ccc3c(c2)ncn3-c2ccc3cccc(N4CCC(N)CC4)c3n2)COC1,109 ± 1.2%
2,CC1=NN(c2ccc(C)c(C)c2)C(=O)/C1=N\Nc1cccc(-c2cccc(C(=O)O)c2)c1O,106.5 ± 0.35%
3,CN(C)C(=O)[C@H](O)[C@H](Cc1ccccc1)NC(=O)c1cc2cc(Cl)ccc2[nH]1,103 ± 1.9%
4,CN(C)c1ccc(-c2nc3ncc(Cl)c(N4CCN(CC(=O)Nc5nccs5)CC4)c3[nH]2)cc1,104 ± 2.7%
5,COCC(=O)NC/C=C/c1ccc2ncnc(Nc3ccc(Oc4ccc(C)nc4)c(C)c3)c2c1,100 ± 2.7%
6,COc1cc2ncnc(-n3nc(-c4ccccn4)nc3N)c2cc1OC,101 ± 1.5%
7,COc1ccc([C@]2(C#N)CC[C@@H](C(=O)O)CC2)cc1OC1CCCC1,96.5 ± 2.4%
8,COc1ccnc2[nH]cc(C(=O)C(=O)N3CCN(C(=O)c4ccccc4)C[C@H]3C)c12,105 ± 6.5%
9,C[C@@H]1CCN(C(=O)CC#N)C[C@@H]1N(C)c1ncnc2[nH]ccc12,113 ± 2.6%
10,NC1(Cc2ccc(Cl)cc2)CCN(c2ncnc3[nH]ccc23)CC1,65.2 ± 2.3%
11,O=C(NOCC1CC1)c1ccc(F)c(F)c1Nc1ccc(I)cc1Cl,101 ± 2.5%
12,OC(CN1CCN(c2cccc(Cl)c2)CC1)C(c1ccccc1)c1ccccc1 (stereo not given),102 ± 4.7%
13,COc1cc2c(cc1O)CC[C@@H]1[C@@H]2CC[C@]2(C)[C@@H](O)CC[C@@H]12 [2-Methoxyestradiol],121 ± 1.9%
14,C=CCNC1=C2C[C@@H](C)C[C@H](OC)[C@H](O)[C@@H](C)/C=C(\C)[C@H](OC(N)=O)[C@@H](OC)/C=C\C=C(/C)C(=O)NC(=CC1=O)C2=O [17-AAG (Geldanamycin)],105 ± 1.4%
15,CO[C@H]1/C=C\C=C(/C)C(=O)NC2=CC(=O)C(NCCN(C)C)=C(C[C@@H](C)C[C@H](OC)[C@H](O)[C@@H](C)/C=C(\C)[C@@H]1OC(N)=O)C2=O [17-DMAG],76.2 ± 3.6%

# Same assay, conditions: 0.001 µM; serum: 10% FBS; 72 h
row,SMILES,relative viability
1,CC1(COc2ccc3c(c2)ncn3-c2ccc3cccc(N4CCC(N)CC4)c3n2)COC1,98.7 ± 1.8%
2,CC1=NN(c2ccc(C)c(C)c2)C(=O)/C1=N\Nc1cccc(-c2cccc(C(=O)O)c2)c1O,104 ± 3.9%
3,CN(C)C(=O)[C@H](O)[C@H](Cc1ccccc1)NC(=O)c1cc2cc(Cl)ccc2[nH]1,94.3 ± 1%
4,CN(C)c1ccc(-c2nc3ncc(Cl)c(N4CCN(CC(=O)Nc5nccs5)CC4)c3[nH]2)cc1,96.7 ± 1.2%
5,COCC(=O)NC/C=C/c1ccc2ncnc(Nc3ccc(Oc4ccc(C)nc4)c(C)c3)c2c1,97.758 ± 0.079%
6,COc1cc2ncnc(-n3nc(-c4ccccn4)nc3N)c2cc1OC,103 ± 2.7%
7,COc1ccc([C@]2(C#N)CC[C@@H](C(=O)O)CC2)cc1OC1CCCC1,102.9 ± 0.13%
8,COc1ccnc2[nH]cc(C(=O)C(=O)N3CCN(C(=O)c4ccccc4)C[C@H]3C)c12,106 ± 3.8%
9,C[C@@H]1CCN(C(=O)CC#N)C[C@@H]1N(C)c1ncnc2[nH]ccc12,98.5 ± 1.1%
10,NC1(Cc2ccc(Cl)cc2)CCN(c2ncnc3[nH]ccc23)CC1,81 ± 1.2%
11,O=C(NOCC1CC1)c1ccc(F)c(F)c1Nc1ccc(I)cc1Cl,98 ± 1.2%
12,OC(CN1CCN(c2cccc(Cl)c2)CC1)C(c1ccccc1)c1ccccc1 (stereo not given),93.4 ± 2.8%
13,COc1cc2c(cc1O)CC[C@@H]1[C@@H]2CC[C@]2(C)[C@@H](O)CC[C@@H]12 [2-Methoxyestradiol],118 ± 3.8%
14,C=CCNC1=C2C[C@@H](C)C[C@H](OC)[C@H](O)[C@@H](C)/C=C(\C)[C@H](OC(N)=O)[C@@H](OC)/C=C\C=C(/C)C(=O)NC(=CC1=O)C2=O [17-AAG (Geldanamycin)],100.9 ± 0.99%
15,CO[C@H]1/C=C\C=C(/C)C(=O)NC2=CC(=O)C(NCCN(C)C)=C(C[C@@H](C)C[C@H](OC)[C@H](O)[C@@H](C)/C=C(\C)[C@@H]1OC(N)=O)C2=O [17-DMAG],58 ± 3.6%

# Same assay, conditions: 0.01 µM; serum: 10% FBS; 72 h
row,SMILES,relative viability
1,CC1(COc2ccc3c(c2)ncn3-c2ccc3cccc(N4CCC(N)CC4)c3n2)COC1,109 ± 4.7%
2,CC1=NN(c2ccc(C)c(C)c2)C(=O)/C1=N\Nc1cccc(-c2cccc(C(=O)O)c2)c1O,98.5 ± 2.5%
3,CN(C)C(=O)[C@H](O)[C@H](Cc1ccccc1)NC(=O)c1cc2cc(Cl)ccc2[nH]1,111 ± 2.4%
4,CN(C)c1ccc(-c2nc3ncc(Cl)c(N4CCN(CC(=O)Nc5nccs5)CC4)c3[nH]2)cc1,102 ± 4%
5,COCC(=O)NC/C=C/c1ccc2ncnc(Nc3ccc(Oc4ccc(C)nc4)c(C)c3)c2c1,97.3 ± 1.7%
6,COc1cc2ncnc(-n3nc(-c4ccccn4)nc3N)c2cc1OC,107 ± 2.2%
7,COc1ccc([C@]2(C#N)CC[C@@H](C(=O)O)CC2)cc1OC1CCCC1,95.4 ± 2.6%
8,COc1ccnc2[nH]cc(C(=O)C(=O)N3CCN(C(=O)c4ccccc4)C[C@H]3C)c12,111 ± 2.5%
9,C[C@@H]1CCN(C(=O)CC#N)C[C@@H]1N(C)c1ncnc2[nH]ccc12,106 ± 4.8%
10,NC1(Cc2ccc(Cl)cc2)CCN(c2ncnc3[nH]ccc23)CC1,81.4 ± 1.9%
11,O=C(NOCC1CC1)c1ccc(F)c(F)c1Nc1ccc(I)cc1Cl,104 ± 1.8%
12,OC(CN1CCN(c2cccc(Cl)c2)CC1)C(c1ccccc1)c1ccccc1 (stereo not given),104 ± 2.5%
13,COc1cc2c(cc1O)CC[C@@H]1[C@@H]2CC[C@]2(C)[C@@H](O)CC[C@@H]12 [2-Methoxyestradiol],112 ± 2.2%
14,C=CCNC1=C2C[C@@H](C)C[C@H](OC)[C@H](O)[C@@H](C)/C=C(\C)[C@H](OC(N)=O)[C@@H](OC)/C=C\C=C(/C)C(=O)NC(=CC1=O)C2=O [17-AAG (Geldanamycin)],72.2 ± 2.9%
15,CO[C@H]1/C=C\C=C(/C)C(=O)NC2=CC(=O)C(NCCN(C)C)=C(C[C@@H](C)C[C@H](OC)[C@H](O)[C@@H](C)/C=C(\C)[C@@H]1OC(N)=O)C2=O [17-DMAG],28.6 ± 0.72%
